Measured values: patent US4416871A, “Inhibition by peptides of tolerance to and physical dependence on morphine” (The United States of America as represented by the …, priority 1982, dated 1983)
Entries after “also recorded” stand apart in the source; their conditions may differ. Non-standard residues stand in square brackets, D forms with d. Residues, ends and D or L forms follow the SMILES beside them. No end group written: not given here. *: point of attachment. pGlu = O=C1CC[C@@H](C(=O)O)N1; Cbz = O=C(OCc1ccccc1)*

What was measured:
morphine-dependent mice [1] = assay: Naloxone-precipitated withdrawal: body temperature and withdrawal signs; format: in vivo; settings: for Withdrawal, % of control (jumping, shakes, diarrhea) / Δt, °C. (difference in body temperature just prior to naloxone and 30 min. thereafter): Table II, peptide 50 μg per mouse, naloxone 0.1 mg/kg; for Δt, °C. (difference in body temperature just prior to naloxone and 30 min. thereafter): mean ± SD; for ability to block development of physical dependence on morphine: naloxone-precipitated withdrawal, Tables II and III; for Withdrawal, % of control / Δt, °C. / lowest dose still effective in blocking physical dependence on morphine: Table III; for Withdrawal, % of control / Δt, °C.: dose 50 μg; for lowest dose still effective in blocking physical dependence on morphine: dose-response experiments
Protocol: The mice were randomly divided into two groups. One received SC injections of water (vehicle) while the other received the peptide under investigation (50 μg/mouse on day one). Two hours later the mice were further subdivided and each subgroup was implanted with placebo or morphine pellets. The injections of vehicle and peptide were repeated 24 and 48 hours after the first injection in their respective groups. Morphine pellets containing 75 mg of morphine free base were implanted subcutaneously (SC) between 10-11 A.M. and were removed 3 days later at the same time. The control animals were implanted with placebo pellets. Body temperature and weight were measured daily at 11 A.M. Temperature was measured using a lubricated rectal probe inserted 2.5 cm into the rectum and measured with a telethermometer (Model 43TA Yellow Springs Instrument Co., Yellow Springs, Ohio).
To determine the effects of peptide treatment on the development of physical dependence, the abstinence syndrome was precipitated using the morphine antagonist naloxone (Endo Laboratories Inc., N.Y.) at the appropriate dose (0.1, 0.25, or 0.50 mg/kg) injected intraperitoneally (IP) one hour following removal of morphine and placebo pellets. Pellet removal was performed 24 hours after the last peptide injection. These mice were monitored for changes in body temperature (see above) and body weight at 15 min. intervals for one hour after the naloxone injection. Effects of removing the pellets (withdrawing morphine) were also assessed by utilizing body temperature and weight as physical dependence parameters; however, these measurements were made at 2 hour intervals for 10 hours after the removal of the pellets. Placebo implanted mice were treated in the same manner as the morphine pellet implanted mice.

morphine-dependent mice [2] = assay: as above; format: in vivo; settings: Table III
[3] = literature, Life Sci., 19, 1331-1340; cited from earlier work

Molecule | Withdrawal, % of control (jumping, shakes, diarrhea) (morphine-dependent mice [1]) [%] | Δt, °C. (difference in body temperature just prior to naloxone and 30 min. thereafter) (morphine-dependent mice [1]) | also measured
Cbz-Pro-Gln | 0 | +0.08 ± 0.33 °C | –
Cbz-Pro-Gly | 69 | -0.79 ± 0.78 °C | –
O=C1N[C@@H](Cc2ccccc2)C(=O)N2CCC[C@@H]12 [Cyclo(Pro--Phe)] | 20 | -0.13 ± 0.55 °C | ability to block development of physical dependence on morphine (morphine-dependent mice [1]): showed significant activity
Cbz-Pro-Leu | 22 | +0.08 ± 0.93 °C | Withdrawal, % of control (morphine-dependent mice [1]): 18%; Δt, °C. (morphine-dependent mice [1]): +0.08 ± 0.93 °C; lowest dose still effective in blocking physical dependence on morphine (morphine-dependent mice [1]): 5 μg per mouse; ability to block development of physical dependence on morphine (morphine-dependent mice [1]): exhibited activity; Withdrawal, % of control (morphine-dependent mice [2]; dose 0.5 μg): 100%; Δt, °C. (morphine-dependent mice [2]; dose 0.5 μg): -1.17 ± 0.17 °C; Withdrawal, % of control (morphine-dependent mice [2]; dose 5 μg): 0%; Δt, °C. (morphine-dependent mice [2]; dose 5 μg): +0.33 ± 0.26 °C
Cbz-Pro-Ile | 78 | -1.19 ± 0.91 °C | –
8-arginine vasotocin | – | – | relative potency in facilitating development of physical dependence on and tolerance to morphine [3]: more effective than 8-arginine vasopressin
Cbz-Pro-Phe | 89 | -1.03 ± 0.55 °C | Withdrawal, % of control (morphine-dependent mice [1]): 99%; Δt, °C. (morphine-dependent mice [1]): -1.03 ± 0.55 °C; Withdrawal, % of control (morphine-dependent mice [2]; dose 0.05 μg): 100%; Δt, °C. (morphine-dependent mice [2]; dose 0.05 μg): -1.60 ± 0.69 °C; Withdrawal, % of control (morphine-dependent mice [2]; dose 0.5 μg): 100%; Δt, °C. (morphine-dependent mice [2]; dose 0.5 μg): -0.69 ± 0.22 °C; Withdrawal, % of control (morphine-dependent mice [2]; dose 5 μg): 100%; Δt, °C. (morphine-dependent mice [2]; dose 5 μg): -0.69 ± 0.24 °C
Cbz-[dP]-Leu | 14 | +0.17 ± 0.71 °C | ability to block development of physical dependence on morphine (morphine-dependent mice [1]): exhibited activity
Z-D-Pro--D-Leu | 0 | +0.10 ± 0.56 °C | ability to block development of physical dependence on morphine (morphine-dependent mice [1]): exhibited activity
Cbz-Pro-Tyr | 0 | +0.13 ± 0.31 °C | –
Cbz-Ala-Pro | 100 | -1.20 ± 0.21 °C | –
Z-Pro--ΔPhe | 22 | -0.36 ± 0.58 °C | –
Cbz-Pro-Ala | 63 | -0.74 ± 0.94 °C | –
CC(C)C[C@H](NC(=O)[C@@H]1CCCN1C(=O)OCc1ccccc1)C(N)=O [Z-Pro--Leu--NH2] (Cbz-Pro-Leu-NH2) | 100 | -0.95 ± 0.21 °C | –
Cbz-Pro-Val | 63 | -0.44 ± 0.48 °C | –
Cbz-Pro-Glu | 45 | -0.63 ± 0.88 °C | –
Cbz-Pro-Met | 0 | +0.17 ± 0.23 °C | –
Cbz-Pro-Ser | 39 | -0.29 ± 0.73 °C | –
CC(C)C[C@H](NC(=O)[C@@H]1CCCN1C(=O)OCc1ccccc1)C(=O)NCC(=O)O [Z-Pro--Leu--Gly--COOH] (Cbz-Pro-Leu-Gly-OH) | 100 | -1.20 ± 0.39 °C | –
CC(C)C[C@H](NC(=O)OCc1ccccc1)C(=O)NCC(N)=O [Z-Leu--Gly--NH2] (Cbz-Leu-Gly-NH2) | 70 | -0.75 ± 0.72 °C | –
CC(C)C[C@@H]1NC(=O)CNC1=O [Cyclo(Leu--Gly), cyclo(leucyl-glycine)] | 21 | -0.02 ± 0.83 °C | Withdrawal, % of control (morphine-dependent mice [1]): 18%; Δt, °C. (morphine-dependent mice [1]): -0.19 ± 0.58 °C; lowest dose still effective in blocking physical dependence on morphine (morphine-dependent mice [1]): ≤ 0.05 μg per mouse; ability to block development of physical dependence on morphine (morphine-dependent mice [1]): showed significant activity; also recorded: most potent peptides tested; relative potency in facilitating development of physical dependence on and tolerance to morphine [3]: as effective as oxytocin; Withdrawal, % of control (morphine-dependent mice [2]; dose 0.05 μg): 20%; Δt, °C. (morphine-dependent mice [2]; dose 0.05 μg): +0.27 ± 0.70 °C; Withdrawal, % of control (morphine-dependent mice [2]; dose 0.5 μg): 0%; Δt, °C. (morphine-dependent mice [2]; dose 0.5 μg): +0.30 ± 0.29 °C; Withdrawal, % of control (morphine-dependent mice [2]; dose 5 μg): 0%; Δt, °C. (morphine-dependent mice [2]; dose 5 μg): +0.47 ± 0.32 °C
Z-Pro--D-Ala--DCHA | 50 | -0.55 ± 0.90 °C | –
CC(C)C[C@H]1NC(=O)[C@@H]2CCCN2C1=O [Cyclo(Pro--D-Leu)] | 40 | -0.24 ± 1.06 °C | –
CC(C)C[C@@H]1NC(=O)[C@H](C)NC1=O [Cyclo(Leu--Ala)] | 100 | -1.80 ± 0.96 °C | –
CC(C)C[C@H](NC(=O)[C@@H]1CCCN1C(=O)CNC(=O)OCc1ccccc1)C(=O)NCC(=O)O [Z-Gly--Pro--Leu--Gly--COOH] (Cbz-GPLG-OH) | 22 | -0.07 ± 0.72 °C | –
Z-Pro--Leu--Gly--N(CH3)2 | 100 | -0.47 ± 0.15 °C | –
CC(C)C[C@H](NC(=O)[C@@H]1CCC(=O)N1)C(=O)NCC(N)=O [[Glu--Leu--Gly--NH2] ([pGlu]-Leu-Gly-NH2) | 44 | -0.27 ± 0.72 °C | –
CC[C@H](C)[C@@H]1NC(=O)[C@H](Cc2ccc(O)cc2)NC(=O)[C@@H](N)CSSC[C@@H](C(=O)N2CCC[C@H]2C(=O)N[C@@H](CC(C)C)C(=O)NCC(N)=O)NC(=O)[C@H](CC(N)=O)NC(=O)[C@H](CCC(N)=O)NC1=O [oxytocin] | – | – | relative potency in facilitating development of physical dependence on and tolerance to morphine [3]: more effective than 8-arginine vasopressin
